Results on 4 compounds are retold here after PMC8944975, “Secretin Receptor as a Target in Gastrointestinal Cancer: Expression Analysis and Ligand Development” (Biomedicines, 2022).

Where no end group is shown, it is not given here.

By half-life is commonly meant the time needed for the level to fall by half in the phase considered.

The conditions of series [1]: in vivo; cited from earlier work. An excerpt:
Due to their vulnerability towards proteolytic degradation, most peptide hormones have short half-lives of only a few minutes. […] To chemically stabilize a peptide ligand by the introduction of artificial amino acids, the amino acid positions crucial for its activity need to be identified. The experimental strategy included design and synthesis of a library of secretin variants that would contain single amino acid substitutions as well as truncations on either end. To characterize a large number of individual peptides ...

Another series deals with human SCTR (Homo sapiens, UniProt P47872). Kind of series: GloSensor cAMP assay, agonist mode. The series is classed as cell-based. Also on record: expressed in transfected cells. The note with it: GloSensor cAMP assay; at least 3 independent experiments in duplicates; read-out: cAMP Production, Intrinsic Activity. How it is done:
Analysis of downstream signaling of activated SCTR via Gαs G-protein subunits was performed by monitoring intracellular cAMP utilizing the GloSensor system (Promega, Walldorf, Germany) in accordance with the supplier protocol. Measurements were performed using the EnVision Analyzer (PerkinElmer, Rodgau, Germany). For evaluation, concentration–response curves (signal-to-noise ratios plotted) employing the derived statistical mean and SD for estimation of the respective EC50 were calculated using Spotfire Decision Site (TIBCO, Palo Alto, CA, USA). For the analysis of antagonists, a modified protocol was used. Treatment of cells and dilution of the potential antagonist was performed as previously described. Ligand dilutions were added to cells and incubated at room temperature for 5 min. Successively, secretin was added at a final concentration of 0.5 nM for an additional 15 min at room temperature. The emitted chemiluminescence, which correlates with the cAMP concentration, was detected with suitable filters. Evaluation of data was performed as previously described with a calculation of half-maximal inhibitory concentration (IC50).
On the technique in general: Changes in cAMP serve as a functional read-out for many G protein-coupled receptors.

In series [2] the test system is isolated pancreatic membranes. The note with it: cited from earlier work. An excerpt: (§1) Early studies of secretin had shown that its biological activity resides particularly in the amino terminus. […] Despite their lack of activation, these truncated peptides were able to displace native secretin at high concentrations.
The test system of series [3] is pancreatic secretion of both fluid and bicarbonate. The note with it: cited from earlier work.
Text: as §1

For another series, the system named is SCTR. The note with it: variant of rat secretin(5–27); cited from earlier work.
Text: as §1

human SCTR, sequence (P47872 23-440): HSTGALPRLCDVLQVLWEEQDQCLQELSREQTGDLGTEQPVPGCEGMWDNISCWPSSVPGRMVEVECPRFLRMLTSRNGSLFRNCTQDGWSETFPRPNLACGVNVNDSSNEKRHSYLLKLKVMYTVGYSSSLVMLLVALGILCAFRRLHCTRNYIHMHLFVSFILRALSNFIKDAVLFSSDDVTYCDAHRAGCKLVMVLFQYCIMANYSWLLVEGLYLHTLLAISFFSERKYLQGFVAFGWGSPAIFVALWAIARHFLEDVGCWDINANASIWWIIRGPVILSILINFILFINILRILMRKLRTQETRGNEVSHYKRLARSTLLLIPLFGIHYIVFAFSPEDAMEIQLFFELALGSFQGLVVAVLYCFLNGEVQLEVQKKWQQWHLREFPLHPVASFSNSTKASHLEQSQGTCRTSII

Take `CC(C)C[C@H](NC(=O)CNC(=O)[C@H](CCC(N)=O)NC(=O)[C@H](CC(C)C)NC(=O)[C@H](CC(C)C)NC(=O)[C@H](CCCNC(=N)N)NC(=O)[C@H](CCC(N)=O)NC(=O)[C@H](CC(C)C)NC(=O)[C@H](CCCNC(=N)N)NC(=O)[C@H](C)NC(=O)CNC(=O)[C@H](CCC(=O)O)NC(=O)[C@H](CCCNC(=N)N)NC(=O)[C@H](CC(C)C)NC(=O)[C@H](CCCNC(=N)N)NC(=O)[C@H](CO)NC(=O)[C@H](CC(C)C)NC(=O)[C@H](CCC(=O)O)NC(=O)[C@H](CO)NC(=O)[C@@H](NC(=O)[C@H](Cc1ccccc1)NC(=O)[C@@H](NC(=O)CNC(=O)[C@H](CC(=O)O)NC(=O)[C@H](CO)NC(=O)[C@@H](N)Cc1c[nH]cn1)[C@@H](C)O)[C@@H](C)O)C(=O)N[C@H](C(N)=O)C(C)C` [Peptide 1, reference compound]: the half-life in series [1] was 2.5 to 4 min. Besides, the Emax on human SCTR was 100%.

Regarding “Secretin(2–27): N-terminally truncated secretin variant (amino acids 2–27) of the literature (SDGTFTSELSRLREGARLQRLLQGLV; ends and bridges not checked; UniProt P09683 29-54, looked up, fragment)”, the “effect on cAMP synthesis / agonistic effects, in words” value in series [2] was “severe reduction on cAMP synthesis”.

With [(CH2NH)4,5]secretin, the “effect on pancreatic secretion, in words” value in series [3] is “dose-dependently increased pancreatic secretion of both fluid and bicarbonate”.

Turning to [I17, R25]-secretin(5–27), the affinity in the series with SCTR is 23 nM.
